From article PMC11073612 (Nature structural & molecular biology, 2022)
Entries after “also recorded” stand apart in the source; their conditions may differ. Where no end group is shown, it is not given here.

Columns and labels:
SSTR2 ECL2 mutants = assay: BRET assays comparing SST14 and SST28 at ECL2 mutants; format: cell-based; settings: HEK-293S; for behavior of SST14 versus SST28 across ECL2 mutants: all of the mutants tested
SSTR1 = assay: BRET-based Gi3 activation assay at SSTR1; format: cell-based; settings: HEK-293S, 10 min after ligand, n=3 biological replicates
SSTR3 H192A = assay: BRET-based Gi3 activation assay, SSTR3 H192A; format: cell-based; settings: HEK-293S
[1] = system: SSTR2 ECL2+/4 (entire ECL2 from SSTR4); assay: BRET-based Gi3 activation assay, SSTR2 ECL2+/4 chimera; format: cell-based; settings: ECL2+/4 vs ECL2/4, HEK-293S, n=3
[2] = system: SSTR2 R184 to proline mutant; assay: BRET-based Gi3 activation assay, SSTR2 ECL2 mutant R184 to proline; format: cell-based; settings: HEK-293S
SSTR4 = assay: BRET-based Gi3 activation assay at SSTR4; format: cell-based; settings: HEK-293S, 10 min after ligand, n=3 biological replicates
SSTR5 = assay: BRET-based Gi3 activation assay at SSTR5; format: cell-based; settings: HEK-293S, 10 min after ligand, n=3 biological replicates
SSTR2 = assay: BRET-based G protein activation assay at SSTR2; format: cell-based; settings: HEK-293S, 10 min after ligand, n=3 biological replicates
[3] = system: SSTR2 R184 to alanine mutant; assay: BRET-based Gi3 activation assay, SSTR2 ECL2 mutant R184 to alanine; format: cell-based; settings: HEK-293S
SSTR3 = assay: BRET-based Gi3 activation assay at SSTR3; format: cell-based; settings: HEK-293S, 10 min after ligand, n=3 biological replicates
SSTR3 H192T = assay: BRET-based Gi3 activation assay, SSTR3 H192T; format: cell-based; settings: HEK-293S
[4] = system: chimeric constructs of SSTR2 (ECL swaps); assay: BRET-based Gi3 activation assay, SSTR2 ECL2/ECL3 chimeras; format: cell-based; settings: HEK-293S, n=3; for ligand recognition, effect of ECL swaps: nearly all ECL2/ECL3 swaps
SSTR1–5 = settings: cited from earlier work
SSTR2 Q102^2.63S = assay: BRET-based Gi3 activation assay, SSTR2 Q102S; format: cell-based; settings: HEK-293S
SSTR2 N276^6.55Q = assay: BRET-based Gi3 activation assay, SSTR2 N276Q; format: cell-based; settings: HEK-293S
SSTR2 Q187M = assay: BRET-based Gi3 activation assay, SSTR2 Q187M; format: cell-based; settings: HEK-293S, n=3 biological replicates

SST14: endogenous 14-residue somatostatin peptide (Cayman, 20809)
behavior of SST14 versus SST28 across ECL2 mutants (SSTR2 ECL2 mutants): remarkably similar
Gi3 BRET activation response (SSTR1): comparable response
SST14-stimulated G protein activation (effect of mutation) (SSTR3 H192A): deleterious to SST14-stimulated G protein activation
SST14-induced signaling compared to the shorter SSTR4 ECL2 swap [1]: improved SST14-induced signaling
SSTR2 activation (effect of mutation) [2]: substantially reduces SSTR2 activation
Gi3 BRET activation response (SSTR4): comparable response
Gi3 BRET activation response (SSTR5): comparable response
Gi3 BRET activation response (SSTR2): comparable response
SSTR2 activation (effect of mutation) [3]: substantially reduces SSTR2 activation
Gi3 BRET activation response (SSTR3): comparable response
SST14-stimulated G protein activation (effect of mutation) (SSTR3 H192T): deleterious to SST14-stimulated G protein activation
impairment by ECL swaps, SST14 versus octreotide ([4]; ECL swaps): far greater impairment for SST14 than octreotide
ligand recognition, effect of ECL swaps [4]: impaired ligand recognition of SST14 and octreotide to some degree; also recorded: non-linear effect on SST14-induced signaling

SST28: 28-residue somatostatin peptide (SANSNPAMAPRERKAGCKNFFWKTFTSC; ends and bridges not checked; cysteine pairing not given here)
strength of SST28 relative to SST14 (SSTR2 ECL2 mutants; across all of the ECL2 mutants tested): slightly weaker binder than SST14 (less than an order of magnitude)
behavior of SST14 versus SST28 across ECL2 mutants (SSTR2 ECL2 mutants): remarkably similar

lanreotide
subtype selectivity (SSTR1–5): SSTR2-selective

octreotide
Gi3 BRET activation response (SSTR1): almost no activity
octreotide-induced G protein signaling (effect of mutation) (SSTR2 Q102^2.63S): selectively reduces octreotide-induced G protein signaling
SSTR2 activation (effect of mutation) [2]: substantially reduces SSTR2 activation
Gi3 BRET activation response (SSTR4): almost no activity
Gi3 BRET activation response (SSTR5): reduced response
octreotide signaling (effect of mutation) (SSTR2 N276^6.55Q): decreases octreotide signaling in a selective manner
Gi3 BRET activation response (SSTR2): activates SSTR2 most potently
SSTR2 activation (effect of mutation) [3]: substantially reduces SSTR2 activation
Gi3 BRET activation response (SSTR3): reduced response
octreotide signaling (effect of mutation) (SSTR2 Q187M): enhances octreotide signaling
ligand recognition, effect of ECL swaps [4]: impaired ligand recognition of SST14 and octreotide to some degree
